Drawing on patent US9242981B2, “Fused pyrazole derivatives as novel ERK inhibitors” (Merck Sharp & Dohme Corp., priority 2010, dated 2016), this text covers IC50 and Kd for 21 compounds.

In one experiment the target is Mouse ERK2 protein (Mus musculus (Mouse), UniProt P63085). Kind of experiment: Coupled MEK1/ERK2 IMAP assay or Active ERK2 IMAP assay. It counts as biochemical.
In another experiment the target is ERK protein (Mus musculus, UniProt P63085). The experiment in a line: TdF (Temperature Dependence Fluorescence, thermal shift) assay for ERK. As to conditions: Table 2; 3 μM ERK protein. It counts as binding. The source says:
The SAR (Structure Activity Relationship) for ERK ligands covered by this invention was interrogated using the TdF (Temperature Dependence Fluorescence) assay or best known as thermal shift assay. (M. W. Pantoliano, et al., “High-density miniaturized thermal shift assays as a general strategy for drug discovery,” J. Biomol. Screen 6 (2001) 429-440) The TdF assay was mainly conducted in the 96-well based CHROMO-4 real time fluorescence plate reader (BioRad). The Sypro Orange (Sigma-Aldrich), environmentally sensitive fluorescence dye, was used to monitor the protein folding-unfolding transition. Protein-ligand binding was gauged by the change (or shift) in the unfolding transition temperature (ΔTm) acquired at protein alone with respect to protein in the presence of ligand of interest.
Compound of interest was first prepared in DMSO stock (typical concentration: 10 mM). […] Final percentage of DMSO resided in the sample was 2%. The sample plate was heated from 30° C. to 90° C. with thermal ramping rate of 1° C./min. The fluorescence signals were acquired with excitation and emission wavelengths centered at 490 and 560 nm respectively. The instrument thermal stability was ±0.2° C. The melting temperatures (Tm) for ERK protein under aforementioned conditions occurred at […] and 64.8±0.2° C. respectively.
The derivation of TdF-based ligand binding affinity constant (Kd) followed closely those previously formulated by Brandts and Lin. (J. F. Brandts, L.-N. Lin, “Study of strong to ultratight protein interactions using differential scanning calorimetry,” Biochemistry 29 (1990) 6927-6940). In brief, the binding constant of the ligand at the Tm is expressed as below:
[formula] where T0 is the midpoint of unfolding for unliganded protein and Tm is the midpoint of unfolding in presence of ligand. [LTm] is free ligand at Tm. The ΔHu and ΔCpu are the enthalpy of unfolding and heat capacity change of unfolding for the protein respectively. Following algorithm derived by Winsor and coworker, the T0, ΔHu and ΔCpu can be determined separately from nonlinear regression fitting the protein alone melting curve:
[formula] where F(T) is the observed fluorescence intensity at any temperature T, Yn, and Yu are the predicted fluorescence intensities for fully folded and unfolded protein, respectively; mn and mu are slope correction for changes in Yn and Yu with respect to changes in temperature (analogously replace T0 with Tm in the above equation for liganded protein to yield Tm). (Mayhood, T. W., Windsor, W. T., “Ligand binding affinity determined by temperature-dependent circular dichroism: Cyclin-dependent kinase 2 inhibitors,” Analytical Biochemistry 345 (2005) 187-197).
[formula] where ΔHL (T) is the van't Hoff enthalpy of ligand binding at temperature T and ΔCpL is the heat capacity upon ligand binding. For simplicity, the ΔCpL and ΔHL (T) were set to zero and -7 kcal/mol respectively. […]

[1] abbreviates: Table 1, class symbols, 30 μM ATP.

Chain of ERK protein (P63085 2-358 limits assumed): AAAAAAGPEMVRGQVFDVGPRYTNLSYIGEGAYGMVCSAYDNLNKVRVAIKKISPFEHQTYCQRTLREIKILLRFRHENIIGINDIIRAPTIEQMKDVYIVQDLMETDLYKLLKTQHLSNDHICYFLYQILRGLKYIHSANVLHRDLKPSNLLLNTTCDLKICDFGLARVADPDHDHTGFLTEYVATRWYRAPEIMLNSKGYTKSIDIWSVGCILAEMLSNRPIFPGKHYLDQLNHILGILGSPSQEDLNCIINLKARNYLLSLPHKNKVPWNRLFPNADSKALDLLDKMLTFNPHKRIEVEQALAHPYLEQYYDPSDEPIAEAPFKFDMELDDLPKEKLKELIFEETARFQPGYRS
Chain of Mouse ERK2 protein (P63085 whole entry): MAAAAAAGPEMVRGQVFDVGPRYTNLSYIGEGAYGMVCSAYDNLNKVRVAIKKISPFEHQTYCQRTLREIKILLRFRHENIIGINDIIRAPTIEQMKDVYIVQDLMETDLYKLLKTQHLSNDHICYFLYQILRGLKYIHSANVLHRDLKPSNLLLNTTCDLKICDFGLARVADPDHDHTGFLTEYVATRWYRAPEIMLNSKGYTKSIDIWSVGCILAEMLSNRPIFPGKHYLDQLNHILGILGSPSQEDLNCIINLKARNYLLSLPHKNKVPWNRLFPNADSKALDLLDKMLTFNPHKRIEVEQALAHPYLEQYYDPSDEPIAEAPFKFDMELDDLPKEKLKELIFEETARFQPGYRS

Compound `Cc1ccccc1[C@@H]1CN(C)C[C@H]1NC(=O)N1CCc2[nH]nc(-c3ccncc3)c2C1` [Compound 46, 1,4,6,7-tetrahydro-N-[1-methyl-4(R)-(2-methylphenyl)-3(S)-pyrrolidinyl]-3-(4-pyridinyl)-5H-pyrazolo[4,3-c]pyridine-5-carboxamide] showed an IC50 at Mouse ERK2 protein (Table 2, 30 μM ATP) of 0.89 nM. Also, at ERK protein, the Kd stood at 0.7 nM.

As to `O=C(N[C@@H]1CCCN(Cc2ccccc2F)C1)N1CCc2[nH]nc(-c3ccncc3)c2C1` [Compound 48, N-[1-[(2-fluorophenyl)methyl]-3(R)-piperidinyl]-1,4,6,7-tetrahydro-3-(4-pyridinyl)-5H-pyrazolo[4,3-c]pyridine-5-carboxamide], the IC50 at Mouse ERK2 protein (Table 2, 30 μM ATP) is 0.65 nM. Also, the Kd on ERK protein was 0.37 nM.

`COc1cccc(F)c1CN1CCC[C@@H](NC(=O)N2CCc3[nH]nc(-c4ccncc4)c3C2)C1` [Compound 53, N-[1-[(2-fluoro-6-methoxyphenyl)methyl]-3(R)-piperidinyl]-1,4,6,7-tetrahydro-3-(4-pyridinyl)-5H-pyrazolo[4,3-c]pyridine-5-carboxamide]: the IC50 on Mouse ERK2 protein (setting [1]) was less than 20 nM; at Mouse ERK2 protein (Table 2, 30 μM ATP), 3.8 nM. The Kd on ERK protein came to 0.15 nM.

`O=C(N[C@@H]1CCCN(Cc2c(F)cccc2F)C1)N1CCc2[nH]nc(-c3ccncc3)c2C1` [Compound 54, N-[1-[(2,6-difluorophenyl)methyl]-3(R)-piperidinyl]-1,4,6,7-tetrahydro-3-(4-pyridinyl)-5H-pyrazolo[4,3-c]pyridine-5-carboxamide] came in with an IC50 against Mouse ERK2 protein (Table 2, 30 μM ATP) of 1.97 nM. Besides, on ERK protein, the Kd was 0.51 nM.

On Mouse ERK2 protein (Table 2, 30 μM ATP), `O=C(N[C@@H]1CCCN(Cc2csc3ccccc23)C1)N1CCc2[nH]nc(-c3ccncc3)c2C1` [Compound 57, N-[1-(benzo[b]thien-3-ylmethyl)-3(R)-piperidinyl]-1,4,6,7-tetrahydro-3-(4-pyridinyl)-5H-pyrazolo[4,3-c]pyridine-5-carboxamide] returned an IC50 of 0.5 nM. The Kd on ERK protein turned out to be 0.3 nM.

Take `Cc1noc(-c2ccccc2)c1CN1CCC[C@@H](NC(=O)N2CCc3[nH]nc(-c4ccncc4)c3C2)C1` [Compound 75, 1,4,6,7-tetrahydro-N-[1-[(3-methyl-5-phenyl-4-isoxazolyl)methyl]-3(R)-piperidinyl]-3-(4-pyridinyl)-5H-pyrazolo[4,3-c]pyridine-5-carboxamide]: the Kd on ERK protein was determined as 1.36 nM.

For `Cc1onc(-c2ccccc2)c1CN1CCC[C@@H](NC(=O)N2CCc3[nH]nc(-c4ccncc4)c3C2)C1` [Compound 76, 1,4,6,7-tetrahydro-N-[1-[(5-methyl-3-phenyl-4-isoxazolyl)methyl]-3(R)-piperidinyl]-3-(4-pyridinyl)-5H-pyrazolo[4,3-c]pyridine-5-carboxamide], on ERK protein, the Kd was found to be 1.55 nM.

As for `O=C(N[C@@H]1CCCN(Cc2ccccc2)C1)N1CCc2[nH]nc(-c3ccc4c(c3)CCO4)c2C1` [Compound 177, 3-(2,3-dihydro-5-benzofuranyl)-1,4,6,7-tetrahydro-N-[1-(phenylmethyl)-3(R)-piperidinyl]-5H-pyrazolo[4,3-c]pyridine-5-carboxamide], the half-maximal inhibitory concentration (IC50) at Mouse ERK2 protein (setting [1]) was less than 20 nM.

`Cc1cc(-c2n[nH]c3c2CN(C(=O)N[C@@H]2CC[C@H]4CC[C@@H]2N4Cc2c(F)cccc2F)CC3)ccn1` [Compound 178, N-[exo-8-[(2,6-difluorophenyl)methyl]-8-azabicyclo[3.2.1]oct-2-yl]-1,4,6,7-tetrahydro-3-(2-methyl-4-pyridinyl)-5H-pyrazolo[4,3-c]pyridine-5-carboxamide] had an IC50 on Mouse ERK2 protein (setting [1]) of less than 20 nM.

Consider `O=C(N[C@@H]1CCCN(Cc2c(F)cccc2F)C1)N1CCc2[nH]nc(-c3ccc4c(c3)CCO4)c2C1` [Compound 179, N[1-[(2,6-difluorophenyl)methyl]-3(R)-piperidinyl]-3-(2,3-dihydro-5-benzofuranyl)-1,4,6,7-tetrahydro-5H-pyrazolo[4,3-c]pyridine-5-carboxamide], for which the IC50 at Mouse ERK2 protein (setting [1]) lay in the range of 21 to 100 nM.

`Cc1cc(-c2n[nH]c3c2CN(C(=O)N[C@H]2CN(Cc4c(F)cccc4F)CC(F)(F)C2)CC3)ccn1` [Compound 180, N-[1-[(2,6-difluorophenyl)methyl]-5,5-difluoro-3(R)-piperidinyl]-1,4,6,7-tetrahydro-3-(2-methyl-4-pyridinyl)-5H-pyrazolo[4,3-c]pyridine-5-carboxamide]: the IC50 against Mouse ERK2 protein (setting [1]) is 21 to 100 nM.

Turning to `COc1cccc(F)c1CN1CCC[C@@H](NC(=O)N2CCc3[nH]nc(-c4ccc5c(c4)CCO5)c3C2)C1` [Compound 181, (R)-3-(2,3-dihydrobenzofuran-5-yl)-N-(1-(2-fluoro-6-methoxybenzyl)piperidin-3-yl)-6,7-dihydro-1H-pyrazolo[4,3-c]pyridine-5(4H)-carboxamide], the IC50 against Mouse ERK2 protein (setting [1]) was less than 20 nM.

Regarding `O=C(N[C@@H]1CCCN(Cc2csc3ccccc23)C1)N1CCc2[nH]nc(-c3ccc4c(c3)CCO4)c2C1` [Compound 183, N-[1-(benzo[b]thien-3-ylmethyl)-3(R)-piperidinyl]-3-(2,3-dihydro-5-benzofuranyl)-1,4,6,7-tetrahydro-5H-pyrazolo[4,3-c]pyridine-5-carboxamide], the IC50 on Mouse ERK2 protein (setting [1]) is less than 20 nM.

In turn, `Cc1nc2cc(-c3n[nH]c4c3CN(C(=O)N[C@@H]3CCCN(Cc5c(C)cccc5C)C3)CC4)ccc2s1` [Compound 184, N-[1-[(2,6-dimethylphenyl)methyl]-3(R)-piperidinyl]-1,4,6,7-tetrahydro-3-(2-methyl-5-benzothiazolyl)-5H-pyrazolo[4,3-c]pyridine-5-carboxamide] came in with a half-maximal inhibitory concentration (IC50) at Mouse ERK2 protein (setting [1]) of 21 to 100 nM.

Regarding `Cc1nc2ccc(-c3n[nH]c4c3CN(C(=O)N[C@@H]3CCCN(Cc5ccccc5)C3)CC4)cc2o1` [Compound 185, 1,4,6,7-tetrahydro-3-(2-methyl-6-benzoxazolyl)-N-[1-(phenylmethyl)-3(R)-piperidinyl]-5H-pyrazolo[4,3-c]pyridine-5-carboxamide], the IC50 on Mouse ERK2 protein (setting [1]) was in the range of 21 to 100 nM.

`COc1cccc(F)c1CN1CCC[C@@H](NC(=O)N2CCc3[nH]nc(-c4ccc5sc(C)nc5c4)c3C2)C1` [Compound 186, (R)-N-(1-(2-fluoro-6-methoxybenzyl)piperidin-3-yl)-3-(2-methylbenzo[d]thiazol-5-yl)-6,7-dihydro-1H-pyrazolo[4,3-c]pyridine-5(4H)-carboxamide]: the IC50 against Mouse ERK2 protein (setting [1]) was in the range of 21 to 100 nM.

On Mouse ERK2 protein (setting [1]), `Cc1nc2ccc(-c3n[nH]c4c3CN(C(=O)N[C@@H]3CCCN(Cc5c(F)cccc5F)C3)CC4)cc2o1` [Compound 187, N-[1-[(2,6-difluorophenyl)methyl]-3(R)-piperidinyl]-1,4,6,7-tetrahydro-3-(2-methyl-6-benzoxazolyl)-5H-pyrazolo[4,3-c]pyridine-5-carboxamide] had an IC50 of 101 to 1000 nM.

Consider `Cc1nc2cc(-c3n[nH]c4c3CN(C(=O)N[C@@H]3CCCN(Cc5c(F)cccc5F)C3)CC4)ccc2s1` [Compound 188, N-[1-[(2,6-difluorophenyl)methyl]-3(R)-piperidinyl]-1,4,6,7-tetrahydro-3-(2-methyl-5-benzothiazolyl)-5H-pyrazolo[4,3-c]pyridine-5-carboxamide], for which the IC50 on Mouse ERK2 protein (setting [1]) was in the range of 101 to 1000 nM.

Take `Cc1nc2ccc(-c3n[nH]c4c3CN(C(=O)N[C@@H]3CCCN(Cc5csc6ccccc56)C3)CC4)cc2o1` [Compound 189, N-[1-(benzo[b]thien-3-ylmethyl)-3(R)-piperidinyl]-1,4,6,7-tetrahydro-3-(2-methyl-6-benzoxazolyl)-5H-pyrazolo[4,3-c]pyridine-5-carboxamide]: at Mouse ERK2 protein (setting [1]), the IC50 is less than 20 nM.

In turn, `Cc1nc2cc(-c3n[nH]c4c3CN(C(=O)N[C@@H]3CCCN(Cc5ccccc5)C3)CC4)ccc2s1` [Compound 190, 1,4,6,7-tetrahydro-3-(2-methyl-5-benzothiazolyl)-N-[1-(phenylmethyl)-3(R)-piperidinyl]-5H-pyrazolo[4,3-c]pyridine-5-carboxamide] showed an IC50 at Mouse ERK2 protein (setting [1]) of 101 to 1000 nM.

On Mouse ERK2 protein (setting [1]), `Cc1nc2ccc(-c3n[nH]c4c3CN(C(=O)N[C@@H]3CCCN(Cc5ccccc5F)C3)CC4)cc2o1` [Compound 191, N-[1-[(2-fluorophenyl)-methyl]-3(R)-piperidinyl]-1,4,6,7-tetrahydro-3-(2-methyl-6-benzoxazolyl)-5H-pyrazolo[4,3-c]pyridine-5-carboxamide] displayed an IC50 of less than 20 nM.
